Measurements published in patent publication US12286442B2, “Methods and materials for increasing transcription factor eb polypeptide levels” (University of Pittsburgh—Of the Commonwealth System of …, priority 2019, dated 2025).

Assays:
[1] = tested on: TFEB; assay: High content screen measuring TFEB nuclear accumulation (TFEB nuclear/cytosol ratio) in BEAS-2B cells stably expressing TFEB-EGFP; type: cell-based, human; settings: 18 hours incubation
Summary of the method: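 BEAS-2B cells stably expressing TFEB-EGFP (~2300–2500 per well) pre-incubated 8 hours, then exposed to serially diluted compounds (DMEM low glucose, 2% FBS) for 18 hours, PFA-fixed and DAPI-stained. Imaged nuclear (DAPI mask) vs cytosolic (expanded mask) TFEB-GFP; activity = minimal concentration raising nuclear/cytosol ratio by 25%.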

[2] = tested on: BEAS-2B cells; assay: Toxicity: compound concentration needed to induce greater than 50 percent of cell loss; type: cell-based, human; settings: 18 hours incubation
Summary of the method: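 BEAS-2B cells stably expressing TFEB-EGFP treated with serial compound dilutions for 18 h, then PFA-fixed, DAPI-stained and imaged. Toxicity scored as the concentration causing >50% cell loss, binned as ≥25 μM, <25 and >1 μM, or ≤1 μM ("+++").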

Structure (SMILES) | efficacy (minimal compound concentration needed to increase TFEB nuclear/cytosol ratio by 25%) [1] | toxicity (compound concentration needed to induce greater than 50 percent of cell loss) [2]
O=C1NC(=O)c2cc(Nc3nc(-c4ccncc4)nc4ccccc34)ccc21 [Compound 33] | + (“+” equals >25 μM) | + (cell loss of greater than 50 percent at a concentration that equals or is greater than 25 μM was represented as)
Cc1ccc(Nc2nc(-c3ccc([N+](=O)[O-])cc3)nc3ccccc23)c(C)c1 [Compound 200] | ++ (“++” equals between ≤25 μM and >1 μM) | + (cell loss of greater than 50 percent at a concentration that equals or is greater than 25 μM was represented as)
CCc1nc2ccc(Nc3nc(-c4ccncc4)nc4ccncc34)cc2s1 [Compound 119] | + (“+” equals >25 μM) | + (cell loss of greater than 50 percent at a concentration that equals or is greater than 25 μM was represented as)
COc1ccc2nc(-c3ccncc3)nc(Nc3ccc4nc(C(C)C)sc4c3)c2c1 [Compound 364] | + (“+” equals >25 μM) | + (cell loss of greater than 50 percent at a concentration that equals or is greater than 25 μM was represented as)
Cn1ccc2cc(Nc3nc(-c4ccncc4)nc4ccccc34)ccc21 [Compound 26] | +++ (“+++” equals ≤1 μM) | +++ (cell loss of greater than 50 percent at a concentration that equals or is less than 1 μM was represented as “+++.”)
CCc1nc2ccc(Nc3nc(-c4ccncc4)nc4cc(F)ccc34)cc2s1 [Compound 366] | + (“+” equals >25 μM) | + (cell loss of greater than 50 percent at a concentration that equals or is greater than 25 μM was represented as)
Cc1nc2ccc(Nc3nc(-c4ccncc4)nc4ncccc34)cc2s1 [Compound 128] | +++ (“+++” equals ≤1 μM) | + (cell loss of greater than 50 percent at a concentration that equals or is greater than 25 μM was represented as)
CCc1nc2ccc(Nc3nc(-c4ccncc4)nc4ccc(OC)cc34)cc2s1 [Compound 149] | ++ (“++” equals between ≤25 μM and >1 μM) | ++ (cell loss of greater than 50 percent at a concentration less than 25 μM and greater than 1 μM was represented as)
CCc1nc2ccc(Nc3nc(-c4ccncc4)nc4c(OC)cccc34)cc2s1 [Compound 362] | + (“+” equals >25 μM) | + (cell loss of greater than 50 percent at a concentration that equals or is greater than 25 μM was represented as)
c1cc(Nc2nc(-c3ccncc3)nc3ccccc23)c2[nH]ncc2c1 [Compound 100] | + (“+” equals >25 μM) | + (cell loss of greater than 50 percent at a concentration that equals or is greater than 25 μM was represented as)
Cn1c(=O)c2ccccc2n(CC(=O)Nc2ccc(F)cc2)c1=O [Compound 225] | + (“+” equals >25 μM) | + (cell loss of greater than 50 percent at a concentration that equals or is greater than 25 μM was represented as)
CC(C)(C)c1cc2cc(Nc3nc(-c4ccncc4)cc4ncccc34)ccc2[nH]1 [Compound 243] | +++ (“+++” equals ≤1 μM) | + (cell loss of greater than 50 percent at a concentration that equals or is greater than 25 μM was represented as)
c1ccc2c(NC3CCCCC3)nc(-c3ccncc3)nc2c1 [Compound 170] | + (“+” equals >25 μM) | + (cell loss of greater than 50 percent at a concentration that equals or is greater than 25 μM was represented as)
Cc1ccc(-c2nc(Nc3ccc(C)c(F)c3)c3ccccc3n2)cc1 [Compound 202] | + (“+” equals >25 μM) | + (cell loss of greater than 50 percent at a concentration that equals or is greater than 25 μM was represented as)
Fc1cc(Nc2nc(-c3ccncc3)cc3ncccc23)cc2cc[nH]c12 [Compound 239] | ++ (“++” equals between ≤25 μM and >1 μM) | + (cell loss of greater than 50 percent at a concentration that equals or is greater than 25 μM was represented as)
Cc1nc2cc(Cl)c(Nc3nc(-c4ccncc4)nc4ccccc34)cc2o1 [Compound 143] | +++ (“+++” equals ≤1 μM) | + (cell loss of greater than 50 percent at a concentration that equals or is greater than 25 μM was represented as)
c1ccc2c(Nc3ccc4cnoc4c3)nc(-c3cncs3)nc2c1 [Compound 393] | ++ (“++” equals between ≤25 μM and >1 μM) | + (cell loss of greater than 50 percent at a concentration that equals or is greater than 25 μM was represented as)
c1ccc2c(Nc3ccc4c(c3)CCN4)nc(-c3ccncc3)nc2c1 [Compound 35] | +++ (“+++” equals ≤1 μM) | ++ (cell loss of greater than 50 percent at a concentration less than 25 μM and greater than 1 μM was represented as)
Cc1cc(F)cc(Nc2nc(N3CCOCC3)nc3ccccc23)c1 [Compound 46] | + (“+” equals >25 μM) | + (cell loss of greater than 50 percent at a concentration that equals or is greater than 25 μM was represented as)
O=c1[nH]c2ccc(Nc3nc(-c4ccncc4)nc4ccccc34)cc2[nH]1 [Compound 39] | + (“+” equals >25 μM) | + (cell loss of greater than 50 percent at a concentration that equals or is greater than 25 μM was represented as)
Cc1cc(C)cc(Nc2nc(-c3ccncc3)nc3ccccc23)c1 [Compound 2] | +++ (“+++” equals ≤1 μM) | + (cell loss of greater than 50 percent at a concentration that equals or is greater than 25 μM was represented as)
Fc1cccc(Nc2nc(-c3ccncc3)cc3ccccc23)c1 [Compound 43] | ++ (“++” equals between ≤25 μM and >1 μM) | + (cell loss of greater than 50 percent at a concentration that equals or is greater than 25 μM was represented as)
c1ccc2c(Nc3ccc4[nH]ncc4c3)nc(-c3cncs3)nc2c1 [Compound 77] | +++ (“+++” equals ≤1 μM) | + (cell loss of greater than 50 percent at a concentration that equals or is greater than 25 μM was represented as)
c1ccc2c(Nc3cccc4[nH]ccc34)nc(-c3ccncc3)nc2c1 [Compound 97] | +++ (“+++” equals ≤1 μM) | + (cell loss of greater than 50 percent at a concentration that equals or is greater than 25 μM was represented as)
CC(C)c1nc2ccc(Nc3nc(-c4ccncc4)nc4c(F)cccc34)cc2s1 [Compound 367] | ++ (“++” equals between ≤25 μM and >1 μM) | + (cell loss of greater than 50 percent at a concentration that equals or is greater than 25 μM was represented as)
CCn1c(=O)c2ccccc2n(CC(=O)Nc2ccccc2)c1=O [Compound 226] | + (“+” equals >25 μM) | + (cell loss of greater than 50 percent at a concentration that equals or is greater than 25 μM was represented as)
Fc1c(-c2ccncc2)nc(Nc2ccc3nc(C4CC4)sc3c2)c2cccnc12 [Compound 332] | +++ (“+++” equals ≤1 μM) | + (cell loss of greater than 50 percent at a concentration that equals or is greater than 25 μM was represented as)
c1ccc2c(Nc3ccc4sncc4c3)nc(-c3cncs3)nc2c1 [Compound 392] | + (“+” equals >25 μM) | + (cell loss of greater than 50 percent at a concentration that equals or is greater than 25 μM was represented as)
CC(C)c1nc2ccc(Nc3nc(-c4ccncc4)nc4ccccc34)cc2s1 [Compound 94] | +++ (“+++” equals ≤1 μM) | + (cell loss of greater than 50 percent at a concentration that equals or is greater than 25 μM was represented as)
c1cnc2cc(-c3ccncc3)nc(Nc3ccc4nc(C5CC5)sc4c3)c2c1 [Compound 241] | +++ (“+++” equals ≤1 μM) | + (cell loss of greater than 50 percent at a concentration that equals or is greater than 25 μM was represented as)
